Measurements published in patent US6489307B1, “Antisense compositions targeted to β1-adrenoceptor-specific mRNA and methods of use” (University of Florida, priority 1998, dated 2002).
“And” between values parts separate entries of the source, which are not always exact repeats. Equal values may be shown once.

Legend:
[1] = test system: β1-AR mRNA; test: RT-PCR of β1-AR mRNA in myocardium; type: in vivo, Sprague-Dawley rats; details: adjusted for GAPDH
Experimental: Total RNA was isolated from rat myocardium with the single step acid-guanidinum thiocyanate-phenol-chloroform method and quantified (Chomcznski and Sacchi, 1987). One μg of total RNA was reverse transcribed with oligo-dT (Promega) and M-MLV reverse transcriptase (Promega) at 37° C. for one hr. 1.5 μl of RT material was amplified with Taq DNA polymerase (Promega) using a primer pair specific to β1-AR:
PCR™ product was 432 base pairs. For PCR, 35 cycles were used at 95° C. for one minute, 60° C. for one minute, and 72° C. for one min. The RT-PCR™ amplified samples were visualized on 1.8% agarose gels using ethidium bromide. A primer pair of rat GAPDH was used as control:
For PCR™, 35 cycles were used at 95° C. for one min, 60° C. for one min, 72° C. for one min. PCR™ product was 504 base pairs. Relative intensity of bands of interest were analyzed by NSF-300G Scanner (Microtek) (Yang et al., 1998; Li et al., 1999).

[2] = test system: SHRs; test: Blood pressure of SHRs by tail cuff; type: in vivo, rat (SHR); details: for reduction of blood pressure throughout the treatment period: repeated treatment for more than 2 months; for Duration (Range) / Range of Reduction / Maximum Reduction in Blood Pressure: single i.v. 0.5 mg/kg
Experimental: (§1) Rats were warmed for 20 to min. in cages on heating pads. The temperature was controlled at 35° C. to 37° C. Then the rats were placed in a plastic restrainer kept at 37° C. A pneumatic pulse sensor was attached to the tail. After cuff inflation, SBP was determined as the first pulsatile oscillation on the descending side of the pressure curve. HR was determined by manual counting of pulse numbers per unit time. BP and HR were recorded by a Narco physiograph. Data values of each rat were taken as an average of at least 4 stable readings. Baseline was determined by averaging 3 days of measurements before antisense administration.
Blood pressure was measured by the tail-cuff method as described above. Systolic blood pressure (SBP) was determined as the first pulsatile oscillation on the descending side of the pressure curve. Data values of each rat were taken as an average of ≧4 stable readings. Baseline was determined by averaging 3 days of measurements before antisense administration.
as §1, with “for 20-30 min” for “for 20 to min.”, “at 35-37°” for “at 35° C. to 37°”, “Then” for “Then the”, “of” for “of the”, “least four” for “least 4”, “averaging three” for “averaging 3”

[3] = Liver transaminases in plasma after repeated injections; type: in vivo, rat (SHR); details: for ALT / AST: after repeated administration
Experimental: (§2) Safety profiles including liver transaminases, hematology, immune response and tissue pathology were investigated during three repeated injections of β1-AS-ODNs for extended periods of time.
Alanine aminotransferase (ALT) and aspartate aminotransferase (AST) are routinely used as a clinical index for liver function. Their levels increase substantially upon liver damage. SHR were treated with three repeated injections of β1-AS-ODN.

[4] = molecular target: T1, β2-ARs (Rattus norvegicus, UniProt P10608); test: β-AR binding assay (ICYP saturation) on heart ventricle membranes after i.v. injection; type: in vivo, rat (SHR); details: for Bmax, β2: cardiac ventricles of SHRs 4 days after treatment (1 mg/kg i.v.)
T1 construct: membranes were prepared from heart ventricles as previously described; from tissue; host or cells: heart ventricles of SHR
Experimental: (§3) Four days after intravenous injection of saline (n=6) or 1 mg/kg inverted ODN (n=6) or 2, 4, 10 or 18 days after injection of 1 mg/kg β1-AS-ODN (n=24), animals were euthanized, and membranes were prepared from heart ventricles as previously described (Baker and Pitha, 1982). For saturation experiments, 100 μg membrane protein was incubated in triplicate with 6 concentrations of [^125I](^−)-iodocyanopindolol (ICYP, NEN Life Science, 6.25 to 100 pmol/L) in a total volume of 250 μL containing 50 mmol/L Tris-HCl (pH 7.4), 5 mmol/L MgCl2 at 36° C. for 60 minutes. The nonspecific and β2-AR-binding levels were determined in the presence of 1 μmol/L (±)-alprenolol and 150 nmol/L CGP20712A (RBI), respectively. Then the reaction mixture was passed through Whatman (GF/B glass fiber filter using a Brandel harvester, and the bound radioactivity was counted for 1 min.
(§4) Four days after intravenous injection of saline (n=6) or 1 mg/kg inverted ODN (n=6), or 2, 4, 10, 18 days after injection of 1 mg/kg β1-AS-ODN (n=24), animals were sacrificed and membranes were prepared from heart ventricles as previously described (Baker and Pitha, 1982). For saturation studies, 100 μg membrane protein was incubated in triplicate with six concentrations of ^125I-(−)iodocyanopindolol (I-CYP, NEN Life Science, 6.25-100 pM) in a total volume of 250 μl containing 50 mM Tris-HCl (pH 7.4), 5 mM MgCl2 at 36° C. for 60 min. The nonspecific and β2-adrenoceptor binding levels were determined in the presence of 1 μM (±)-alprenolol and 150 nM CGP20712A (RBI), respectively. Then the reaction mixture was passed through Whatman GF/B glass fiber filter using Brandel harvester and the bound radioactivity was counted for one min.

[5] = molecular target: T2, β1-ARs (Rattus norvegicus, UniProt P18090); test: as above; type: in vivo, rat (SHR); details: for Bmax, β1: cardiac ventricles of SHRs 4 days after treatment (1 mg/kg i.v.)
T2 construct: membranes were prepared from heart ventricles as previously described; from tissue; host or cells: heart ventricles of SHR
Experimental: as §3, §4

[6] = test system: Total (β1+β2) β-ARs; test: as above; type: in vivo, rat (SHR); details: cardiac ventricles of SHRs 4 days after treatment (1 mg/kg i.v.)
Experimental: as §3, §4

[7] = Hematology after repeated injections; type: in vivo, rat (SHR); details: for MPV: after repeated administration
Experimental: as §2
Hematological parameters were measured after three repeated injections of β1-AS-ODN. There was no change in total leukocyte count (WBC), platelet count, hematocrit and mean platelet volume (MPV) among three groups (Table 6).

[8] = 0.5 mg/kg i.v., charge ratio 1.5
[9] = 0.5 mg/kg i.v., charge ratio 2.5
[10] = 0.5 mg/kg i.v., charge ratio 3.5
[11] = single 1 mg/kg, liposomes DNA/lipid 1:0.5

T2 sequence (P18090 whole entry): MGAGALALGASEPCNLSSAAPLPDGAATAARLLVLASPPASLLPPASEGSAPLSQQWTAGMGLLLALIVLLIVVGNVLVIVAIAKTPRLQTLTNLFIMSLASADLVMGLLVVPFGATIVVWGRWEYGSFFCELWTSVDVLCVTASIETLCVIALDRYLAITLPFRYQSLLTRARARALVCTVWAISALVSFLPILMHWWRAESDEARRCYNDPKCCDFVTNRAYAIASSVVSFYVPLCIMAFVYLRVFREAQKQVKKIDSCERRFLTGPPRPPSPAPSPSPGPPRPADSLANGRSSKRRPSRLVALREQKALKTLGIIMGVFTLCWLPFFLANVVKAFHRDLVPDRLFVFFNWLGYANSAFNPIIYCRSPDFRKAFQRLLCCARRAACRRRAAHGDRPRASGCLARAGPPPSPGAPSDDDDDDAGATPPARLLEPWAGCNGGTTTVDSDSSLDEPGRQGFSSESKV
T1 sequence (P10608 whole entry): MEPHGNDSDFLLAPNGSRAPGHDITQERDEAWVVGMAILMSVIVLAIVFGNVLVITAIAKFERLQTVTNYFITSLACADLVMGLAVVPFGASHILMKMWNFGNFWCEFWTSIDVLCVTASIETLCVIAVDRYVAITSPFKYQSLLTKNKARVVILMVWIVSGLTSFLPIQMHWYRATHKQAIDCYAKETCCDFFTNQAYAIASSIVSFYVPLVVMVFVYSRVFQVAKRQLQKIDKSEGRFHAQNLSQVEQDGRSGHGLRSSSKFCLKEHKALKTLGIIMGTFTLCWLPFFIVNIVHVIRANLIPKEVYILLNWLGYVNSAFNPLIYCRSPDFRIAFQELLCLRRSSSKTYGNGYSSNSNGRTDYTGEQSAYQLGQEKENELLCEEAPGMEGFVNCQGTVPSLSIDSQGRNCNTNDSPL

Substance: 5′-AGCCGTACCCGCGCC-3′ (phosphorothioate backbone, further chemistry not given here) [Inverted ODN, 15-mer inverted ODN control, reference compound]
- increase of mRNA for β1-AR in myocardium [1]: not significantly affected
- effect on SBP ([2]; 1 mg/kg with liposomes): No effect
- reduction of blood pressure throughout the treatment period [2]: no change
- ALT [3]: 30.5 ± 3.8 unit/ml
- AST [3]: 83.0 ± 8.3 unit/ml
- Bmax, β2 [4]: 8.7 ± 0.5 fmol/mg
- effect on either β-AR subtype ([5]; SHR cardiac ventricles, 1 mg/kg i.v., 4 days): no effect
- Bmax, β1 [5]: 18.1 ± 2.3 fmol/mg
- Bmax, Total (β1+β2) [6]: 26.3 ± 3.0 fmol/mg
- MPV [7]: 7.2 ± 0.20 fL
- WBC ([7]; rat, in vivo): 5.75 ± 1.15 10^3/mm^3
- hematocrit ([7]; rat, in vivo): 46.0 ± 0.1%
- platelet ([7]; rat, in vivo): 706 ± 28 10^3/mm^3

Substance: 5′-CCGCGCCCATGCCGA-3′ (phosphorothioate backbone, further chemistry not given here) [β1-AS-ODN, 15-mer antisense ODN targeted to the AUG start codon of rat β1-AR mRNA]
- increase of mRNA for β1-AR in myocardium [1]: attenuated the increase
- duration of SBP reduction ([2]; 0.5 mg/kg i.v., charge ratio 0.5): 7 to 8 days
- reduction of SBP ([2]; 0.5 mg/kg i.v., charge ratio 0.5, representative experiment): up to 33 mm Hg
- duration of the hypotensive impact [2, 8]: 20 days
- maximum drop in SBP [2, 8]: ≈ 35 mm Hg
- duration of the hypotensive impact [2, 9]: 33 days
- maximum drop in SBP [2, 9]: ≈ 35 mm Hg
- duration of the hypotensive impact [2, 10]: 33 days
- maximum drop in SBP [2, 10]: ≈ 25 mm Hg
- effect on SBP ([2]; 0.5 mg/kg i.v., β1-AS-ODN alone (ratio 0)): did not change SBP
- reduction of blood pressure throughout the treatment period [2]: 20-30 mmHg
- duration of diminished SBP [2, 11]: 8 days
- maximum drop in SBP [2, 11]: 38±5 mm Hg
- Duration (Range) ([2]; charge ratio 0.5): 7 to 8 days
- Range of Reduction ([2]; charge ratio 0.5): 24-38 mm Hg
- Duration (Range) ([2]; charge ratio 1.5): 18 to 20 days
- Range of Reduction ([2]; charge ratio 1.5): 18-35 mm Hg
- Duration (Range) ([2]; charge ratio 2.5): 20 to 33 days
- Range of Reduction ([2]; charge ratio 2.5): 20-34 mm Hg
- Duration (Range) ([2]; charge ratio 3.5): 20 to 33 days
- Range of Reduction ([2]; charge ratio 3.5): 15-24 mm Hg
- Maximum Reduction in Blood Pressure ([2]; charge ratio liposome/ODN 0): 2 mm Hg
- Maximum Reduction in Blood Pressure ([2]; charge ratio liposome/ODN 0.5): 35-38 mm Hg
- Maximum Reduction in Blood Pressure ([2]; charge ratio liposome/ODN 1.5): 28-35 mm Hg
- Maximum Reduction in Blood Pressure ([2]; charge ratio liposome/ODN 2.5): 30-34 mm Hg
- Maximum Reduction in Blood Pressure ([2]; charge ratio liposome/ODN 3.5): 20-24 mm Hg
- hypotensive effect ([2]; single i.v. injection with cationic liposomes, summary): 30 to 35 mm Hg
- plasma concentrations of ALT and AST vs control groups ([3]; after each of three repeated injections): no significant difference
- ALT [3]: 25.7 ± 1.1 unit/ml
- AST [3]: 74.0 ± 3.7 unit/ml
- change in Bmax of β2-ARs ([4]; SHR hearts, single i.v. 1 mg/kg): no significant change
- Bmax, β2 [4]: 9.9 ± 0.5 fmol/mg
- β1/β2 subtype ratio in the ventricles ([5]; after treatment, from ≈70/30): ≈ 50/50 and 50/50
- Bmax, β1 [5]: 10.0 ± 1.2 fmol/mg
- duration of significant reduction of β1-AR density in SHR hearts ([5]; single i.v. 1 mg/kg with cationic liposomes 1:2.5): 18 days
- drop in cardiac β1-AR density ([5]; single i.v. 1 mg/kg with cationic liposomes 1:2.5, day 10): 33%
- drop in cardiac β1-AR density ([5]; single i.v. 1 mg/kg with cationic liposomes 1:2.5, day 18): 29%
- Bmax, Total (β1+β2) [6]: 19.8 ± 1.8 fmol/mg
- MPV [7]: 6.93 ± 0.08 fL
- WBC ([7]; rat, in vivo): 5.48 ± 0.41 10^3/mm^3
- hematocrit ([7]; rat, in vivo): 46.2 ± 0.63%
- platelet ([7]; rat, in vivo): 685 ± 12 10^3/mm^3
- total leukocyte count (WBC), platelet count, hematocrit and MPV ([7]; rat, in vivo): no change
